Test results: patent publication US12655096B2, “Crystalline polymorphs of Rigosertib sodium” (ASSIA CHEMICAL INDUSTRIES LTD., priority 2018, dated 2026)

What was measured:
[1] = Hygroscopicity (water absorption on exposure to relative humidity); format: physicochemical
Description: As used herein the term non-hygroscopic in relation to crystalline Rigosertib Sodium refers to less than 1.0% (w/w) absorption of water, by the crystalline Rigosertib Sodium as determined, for example, by TGA when exposed to 60% RH for 7 days at RT, or preferably 80% RH for 7 days at RT.

[2] = Solid state stability on storage; format: physicochemical
[3] = as described in U.S. Pat. No. 8,476,320; cited from earlier work

Which hygroscopicity ([1]; non-hygroscopic defined as less than 1.0% (w/w) absorption of water) does the source give for `COc1cc(OC)c(/C=C/S(=O)(=O)Cc2ccc(OC)c(NCC(=O)O)c2)c(OC)c1` [Rigosertib Sodium Form A, Rigosertib Sodium] here?
The hygroscopicity was “non-hygroscopic”.

And the “hygroscopicity at relative humidity” value ([1]; up to about 80% relative humidity, about 7 days, 25° C.)?
The value was “substantially non-hygroscopic”.

And the “stability of the solid state form” value [2]?
Its value is “stable”.

With `COc1cc(OC)c(/C=C/S(=O)(=O)Cc2ccc(OC)c(NCC(=O)O)c2)c(OC)c1` [Rigosertib Sodium Form E, Rigosertib Sodium] as the compound, how does the “time for which the form is stable” value ([2]; at RT) read?
Its value is “at least 4 M”.

With `COc1cc(OC)c(/C=C/S(=O)(=O)Cc2ccc(OC)c(NCC(=O)O)c2)c(OC)c1` [Amorphous Rigosertib Sodium, Rigosertib Sodium] as the compound, how does the “hygroscopicity (water absorption)” value [3] read?
Its value is “readily absorbs water after complete drying”.
